# Data from patent publication US20260250318A1, “COMPOSITIONS AND METHODS FOR CROSSING THE BLOOD BRAIN BARRIER” (VOYAGER THERAPEUTICS, INC., priority 2022, published 2026).
# Columns and labels:
# Details in all cases: synthetic library passage 3, intravenous, relative to wild-type AAV9
# [1] = system: brain, spinal cord, and DRG of the NHPs; assay: NGS fold enrichment of synthetic library (passage 3) in NHPs, first cross-species screen; type: in vivo, cynomolgus macaques (Macaca fascicularis)
# Summary of the method: (§1)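 Fold enrichment versus wild-type AAV9 was derived by NGS of RT-PCR-amplified RNA from nervous tissue, collected e.g. 28 days after IV dosing […]. The library (passage 3) was given to two NHPs aged 2-4 years and to 6-8-week BALB/c and C57Bl/6 mice (n=3 each).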
# brain [2] = assay: NGS fold enrichment of synthetic library (passage 3) in BALB/c mice, first cross-species screen; type: in vivo
# Summary of the method: as §1
# brain [3] = assay: NGS fold enrichment of synthetic library (passage 3) in C57Bl/6 mice, first cross-species screen; type: in vivo
# Summary of the method: as §1
# [4] = RNA from spinal cord of NHPs, NGS
# [5] = RNA from brain of BALB/c mice, NGS
# [6] = RNA from brain of C57Bl/6 mice, NGS
Sequence,"Fold enrichment over AAV9 in the brain of NHPs ([1]; RNA NGS, brain of NHPs)","Fold enrichment over AAV9 in the spinal cord of NHPs ([1]; RNA NGS, spinal cord of NHPs)","Fold enrichment over AAV9 in the brain of Mice (BALB/c) (brain [2]; RNA NGS, brain of BALB/c mice)","Fold enrichment over AAV9 in the brain of Mice (C57Bl/6) (brain [3]; RNA NGS, brain of C57Bl/6 mice)","Fold enrichment over AAV9 in the brain of NHPs ([1]; RNA from brain of NHPs, NGS)","Fold enrichment over AAV9 in the spinal cord of NHPs [1, 4]",Fold enrichment over AAV9 in the brain of Mice (BALB/c) (brain [2]; [5]),Fold enrichment over AAV9 in the brain of Mice (C57Bl/6) (brain [3]; [6])
GSGQMASRESNQQT,2.492 fold,0.300 fold,0.288 fold,0.341 fold,,,,
GSGQMGRQAVNQQT,1.554 fold,1.529 fold,0.411 fold,0.535 fold,,,,
GSGQMKDLHRNQQT,1.014 fold,1.068 fold,0.506 fold,0.587 fold,,,,
GSGQMQPHVQNQQT,,,,,1.389 fold,9.381 fold,0.153 fold,0.387 fold
GSGQMQSAGSNQQT,1.482 fold,0.116 fold,1.128 fold,1.034 fold,,,,
GSGQMSDVHGNQQT,,,,,1.346 fold,7.172 fold,0.548 fold,0.408 fold
GSGQMVHTIGNQQT,1.026 fold,1.328 fold,0.430 fold,0.406 fold,,,,
GSGQNAGSFPNQQT,1.928 fold,12.575 fold,0.286 fold,1.091 fold,,,,
GSGQNAHAKEGQQT,1.108 fold,0.000 fold,1.179 fold,0.875 fold,,,,
GSGQNAQQAAAQQT,1.568 fold,4.239 fold,0.604 fold,0.937 fold,,,,
GSGQNARLKDNQQT,,,,,1.354 fold,2.395 fold,0.938 fold,0.580 fold
GSGQNAYSSQAQQT,,,,,1.201 fold,12.096 fold,0.216 fold,0.629 fold
GSGQNERHLVLQQT,1.019 fold,5.354 fold,0.150 fold,0.416 fold,,,,
GSGQNGGSSNRQQT,1.109 fold,2.594 fold,0.844 fold,1.255 fold,,,,
GSGQNGHLSLKQQT,2.362 fold,1.896 fold,0.270 fold,0.718 fold,,,,
GSGQNHGLQSGQQT,1.530 fold,4.960 fold,0.779 fold,0.938 fold,,,,
GSGQNHGVLSNQQT,2.254 fold,1.603 fold,0.701 fold,1.113 fold,,,,
GSGQNHRPSVLQQT,1.983 fold,5.582 fold,0.582 fold,0.433 fold,,,,
GSGQNHRSADMQQT,1.084 fold,12.001 fold,0.212 fold,0.417 fold,,,,
GSGQNIGHSLPQQT,,,,,1.264 fold,6.183 fold,0.478 fold,0.740 fold

Sequence,"Fold enrichment over AAV9 in the brain of NHPs ([1]; RNA NGS, brain of NHPs)","Fold enrichment over AAV9 in the spinal cord of NHPs ([1]; RNA NGS, spinal cord of NHPs)","Fold enrichment over AAV9 in the brain of Mice (BALB/c) (brain [2]; RNA NGS, brain of BALB/c mice)","Fold enrichment over AAV9 in the brain of Mice (C57Bl/6) (brain [3]; RNA NGS, brain of C57Bl/6 mice)","Fold enrichment over AAV9 in the brain of NHPs ([1]; RNA from brain of NHPs, NGS)","Fold enrichment over AAV9 in the spinal cord of NHPs [1, 4]",Fold enrichment over AAV9 in the brain of Mice (BALB/c) (brain [2]; [5]),Fold enrichment over AAV9 in the brain of Mice (C57Bl/6) (brain [3]; [6])
GSGQNKDHSTRRQT,,,,,1.197 fold,0.000 fold,0.477 fold,0.384 fold
GSGQNKQMLSGNTT,,,,,1.410 fold,2.219 fold,0.404 fold,1.074 fold
GSGQNLAGRMDQQT,1.864 fold,0.085 fold,0.295 fold,0.362 fold,,,,
GSGQNLGLLGAQQT,,,,,1.161 fold,1.458 fold,0.226 fold,0.524 fold
GSGQNLHSGLPQQT,,,,,1.363 fold,1.594 fold,0.592 fold,1.054 fold
GSGQNPIRGAMQQT,,,,,1.126 fold,1.327 fold,0.427 fold,1.296 fold
GSGQNPSFMRGQQT,,,,,1.252 fold,1.454 fold,1.094 fold,1.293 fold
GSGQNQAGHGPGQT,1.670 fold,2.861 fold,0.887 fold,1.040 fold,,,,
GSGQNQALVSMGQT,,,,,1.255 fold,1.876 fold,0.560 fold,0.987 fold
GSGQNQAMTHGDQT,,,,,1.257 fold,1.878 fold,0.259 fold,0.357 fold
GSGQNQANWVKVQT,1.059 fold,0.126 fold,0.532 fold,0.683 fold,,,,
GSGQNQAVHNKSQT,1.956 fold,3.791 fold,1.083 fold,1.465 fold,,,,
GSGQNQDHQNKQQT,,,,,1.308 fold,1.470 fold,0.761 fold,0.510 fold
GSGQNQGLLSSPQT,,,,,1.164 fold,0.000 fold,0.417 fold,0.707 fold
GSGQNQGRAHPMQT,1.007 fold,2.364 fold,0.453 fold,0.684 fold,,,,
GSGQNQGTVYPNQT,,,,,1.358 fold,7.648 fold,0.815 fold,0.835 fold
GSGQNQHHSVSQQT,1.623 fold,3.700 fold,0.334 fold,0.605 fold,,,,
GSGQNQHLSSFVQT,1.013 fold,0.110 fold,0.364 fold,1.090 fold,,,,
GSGQNQHSAPFNQT,1.969 fold,0.499 fold,0.870 fold,0.759 fold,,,,
GSGQNQHSAPNSQT,2.134 fold,4.143 fold,0.731 fold,1.187 fold,,,,
